Ki data for seven molecules are collected here from ChEMBL document CHEMBL5442175, “EUbOPEN Chemogenomics Library - PDSP Secondary Binding” (2024).

In general, Ki refers to a measure of affinity in units of concentration, obtained from inhibition or displacement. A higher Ki goes with a looser hold on the target.

Assay [1] has as its target Sodium-dependent dopamine transporter (Homo sapiens, UniProt Q01959). Kind of assay: PDSP Secondary Binding target: SLC6A3 - Compounds are tested at 10 uM concentration, plate are incubated at room temperature in the dark for 90 minutes. Reaction are stopped by vacuum filtration onto 0.3% polyethyleneimine soaked filter mats using Filtermate harvester. Scintillation cocktail is then melted onto microwave-dried filters on a hot plate and the radio activity is counted in Microbia counter.

Assay [2] addresses Delta-type opioid receptor (Homo sapiens, UniProt P41143). Briefly: PDSP Secondary Binding target: OPRD1 - Compounds are tested at 10 uM concentration, plate are incubated at room temperature in the dark for 90 minutes. Reaction are stopped by vacuum filtration onto 0.3% polyethyleneimine soaked filter mats using Filtermate harvester. Scintillation cocktail is then melted onto microwave-dried filters on a hot plate and the radio activity is counted in Microbia counter.

The target in assay [3] is T1, Alpha-2C adrenergic receptor (Homo sapiens, UniProt P18825).
T1 sequence (P18825 whole entry): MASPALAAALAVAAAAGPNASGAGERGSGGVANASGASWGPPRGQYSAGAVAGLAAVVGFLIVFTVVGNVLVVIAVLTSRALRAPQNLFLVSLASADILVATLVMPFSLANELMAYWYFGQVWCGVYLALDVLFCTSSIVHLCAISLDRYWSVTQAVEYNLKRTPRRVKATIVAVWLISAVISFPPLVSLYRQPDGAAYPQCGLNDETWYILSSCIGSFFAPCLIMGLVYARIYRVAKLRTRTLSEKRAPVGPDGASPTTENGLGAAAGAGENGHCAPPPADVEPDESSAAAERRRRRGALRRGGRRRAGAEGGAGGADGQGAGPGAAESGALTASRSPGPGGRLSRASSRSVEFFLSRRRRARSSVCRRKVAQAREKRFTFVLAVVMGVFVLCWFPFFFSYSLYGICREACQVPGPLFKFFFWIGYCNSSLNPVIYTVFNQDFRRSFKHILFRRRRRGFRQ
Briefly: PDSP Secondary Binding target: ADRA2C - Compounds are tested at 10 uM concentration, plate are incubated at room temperature in the dark for 90 minutes. Reaction are stopped by vacuum filtration onto 0.3% polyethyleneimine soaked filter mats using Filtermate harvester. Scintillation cocktail is then melted onto microwave-dried filters on a hot plate and the radio activity is counted in Microbia counter.

Assay [4] deals with T2, Muscarinic acetylcholine receptor M1 (Homo sapiens, UniProt P11229).
T2 sequence (P11229 whole entry): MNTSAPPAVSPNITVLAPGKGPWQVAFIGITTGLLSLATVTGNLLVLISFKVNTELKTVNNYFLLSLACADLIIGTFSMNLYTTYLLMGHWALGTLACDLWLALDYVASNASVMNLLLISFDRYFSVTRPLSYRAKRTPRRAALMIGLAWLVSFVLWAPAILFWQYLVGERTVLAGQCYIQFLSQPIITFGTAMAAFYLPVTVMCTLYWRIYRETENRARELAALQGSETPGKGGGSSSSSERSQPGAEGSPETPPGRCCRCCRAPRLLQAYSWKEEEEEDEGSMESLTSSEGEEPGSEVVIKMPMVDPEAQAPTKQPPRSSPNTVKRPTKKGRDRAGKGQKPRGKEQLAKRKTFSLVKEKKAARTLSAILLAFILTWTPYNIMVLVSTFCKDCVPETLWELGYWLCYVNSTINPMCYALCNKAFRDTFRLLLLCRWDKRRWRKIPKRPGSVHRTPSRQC
Kind of assay: PDSP Secondary Binding target: CHRM1 - Compounds are tested at 10 uM concentration, plate are incubated at room temperature in the dark for 90 minutes. Reaction are stopped by vacuum filtration onto 0.3% polyethyleneimine soaked filter mats using Filtermate harvester. Scintillation cocktail is then melted onto microwave-dried filters on a hot plate and the radio activity is counted in Microbia counter.

Assay [5] addresses Histamine H3 receptor (Homo sapiens, UniProt Q9Y5N1). Briefly: PDSP Secondary Binding target: HRH3 - Compounds are tested at 10 uM concentration, plate are incubated at room temperature in the dark for 90 minutes. Reaction are stopped by vacuum filtration onto 0.3% polyethyleneimine soaked filter mats using Filtermate harvester. Scintillation cocktail is then melted onto microwave-dried filters on a hot plate and the radio activity is counted in Microbia counter.

For assay [6], the target named is T3, Muscarinic acetylcholine receptor M2 (Homo sapiens, UniProt P08172).
T3 sequence (P08172 whole entry): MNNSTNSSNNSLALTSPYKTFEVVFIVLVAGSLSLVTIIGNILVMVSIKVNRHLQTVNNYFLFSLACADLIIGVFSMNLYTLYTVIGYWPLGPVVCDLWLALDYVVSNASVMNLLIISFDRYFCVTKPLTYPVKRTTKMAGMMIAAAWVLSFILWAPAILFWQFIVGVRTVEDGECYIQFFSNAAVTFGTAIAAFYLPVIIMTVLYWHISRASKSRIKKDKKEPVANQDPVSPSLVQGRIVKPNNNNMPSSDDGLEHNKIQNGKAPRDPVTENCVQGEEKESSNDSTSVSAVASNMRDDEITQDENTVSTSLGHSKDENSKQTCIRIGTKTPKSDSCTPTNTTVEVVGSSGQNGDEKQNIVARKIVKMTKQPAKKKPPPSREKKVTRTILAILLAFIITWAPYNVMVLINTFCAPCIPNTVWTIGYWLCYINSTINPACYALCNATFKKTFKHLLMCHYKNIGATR
Briefly: PDSP Secondary Binding target: CHRM2 - Compounds are tested at 10 uM concentration, plate are incubated at room temperature in the dark for 90 minutes. Reaction are stopped by vacuum filtration onto 0.3% polyethyleneimine soaked filter mats using Filtermate harvester. Scintillation cocktail is then melted onto microwave-dried filters on a hot plate and the radio activity is counted in Microbia counter.

Assay [7] has as its target Kappa-type opioid receptor (Homo sapiens, UniProt P41145). Kind of assay: PDSP Secondary Binding target: OPRK1 - Compounds are tested at 10 uM concentration, plate are incubated at room temperature in the dark for 90 minutes. Reaction are stopped by vacuum filtration onto 0.3% polyethyleneimine soaked filter mats using Filtermate harvester. Scintillation cocktail is then melted onto microwave-dried filters on a hot plate and the radio activity is counted in Microbia counter.

Assay [8] addresses Mu-type opioid receptor (Homo sapiens, UniProt P35372). Briefly: PDSP Secondary Binding target: OPRM1 - Compounds are tested at 10 uM concentration, plate are incubated at room temperature in the dark for 90 minutes. Reaction are stopped by vacuum filtration onto 0.3% polyethyleneimine soaked filter mats using Filtermate harvester. Scintillation cocktail is then melted onto microwave-dried filters on a hot plate and the radio activity is counted in Microbia counter.

For assay [9], the target named is Sigma non-opioid intracellular receptor 1 (Homo sapiens, UniProt Q99720). Briefly: PDSP Secondary Binding target: SIGMAR1 - Compounds are tested at 10 uM concentration, plate are incubated at room temperature in the dark for 90 minutes. Reaction are stopped by vacuum filtration onto 0.3% polyethyleneimine soaked filter mats using Filtermate harvester. Scintillation cocktail is then melted onto microwave-dried filters on a hot plate and the radio activity is counted in Microbia counter.

Assay [10] has as its target Histamine H4 receptor (Homo sapiens, UniProt Q9H3N8). Kind of assay: PDSP Secondary Binding target: HRH4 - Compounds are tested at 10 uM concentration, plate are incubated at room temperature in the dark for 90 minutes. Reaction are stopped by vacuum filtration onto 0.3% polyethyleneimine soaked filter mats using Filtermate harvester. Scintillation cocktail is then melted onto microwave-dried filters on a hot plate and the radio activity is counted in Microbia counter.

For assay [11], the target named is 5-hydroxytryptamine receptor 2A (Homo sapiens, UniProt P28223). Kind of assay: PDSP Secondary Binding target: HTR2A - Compounds are tested at 10 uM concentration, plate are incubated at room temperature in the dark for 90 minutes. Reaction are stopped by vacuum filtration onto 0.3% polyethyleneimine soaked filter mats using Filtermate harvester. Scintillation cocktail is then melted onto microwave-dried filters on a hot plate and the radio activity is counted in Microbia counter.

For assay [12], the target named is Histamine H1 receptor (Homo sapiens, UniProt P35367). Briefly: PDSP Secondary Binding target: HRH1 - Compounds are tested at 10 uM concentration, plate are incubated at room temperature in the dark for 90 minutes. Reaction are stopped by vacuum filtration onto 0.3% polyethyleneimine soaked filter mats using Filtermate harvester. Scintillation cocktail is then melted onto microwave-dried filters on a hot plate and the radio activity is counted in Microbia counter.

In assay [13] the target is Sigma intracellular receptor 2 (Homo sapiens, UniProt Q5BJF2). Kind of assay: PDSP Secondary Binding target: TMEM97 - Compounds are tested at 10 uM concentration, plate are incubated at room temperature in the dark for 90 minutes. Reaction are stopped by vacuum filtration onto 0.3% polyethyleneimine soaked filter mats using Filtermate harvester. Scintillation cocktail is then melted onto microwave-dried filters on a hot plate and the radio activity is counted in Microbia counter.

The target of assay [14] is Sodium-dependent noradrenaline transporter (Homo sapiens, UniProt P23975). Kind of assay: PDSP Secondary Binding target: SLC6A2 - Compounds are tested at 10 uM concentration, plate are incubated at room temperature in the dark for 90 minutes. Reaction are stopped by vacuum filtration onto 0.3% polyethyleneimine soaked filter mats using Filtermate harvester. Scintillation cocktail is then melted onto microwave-dried filters on a hot plate and the radio activity is counted in Microbia counter.

The target in assay [15] is T4, Muscarinic acetylcholine receptor M5 (Homo sapiens, UniProt P08912).
T4 sequence (P08912 whole entry): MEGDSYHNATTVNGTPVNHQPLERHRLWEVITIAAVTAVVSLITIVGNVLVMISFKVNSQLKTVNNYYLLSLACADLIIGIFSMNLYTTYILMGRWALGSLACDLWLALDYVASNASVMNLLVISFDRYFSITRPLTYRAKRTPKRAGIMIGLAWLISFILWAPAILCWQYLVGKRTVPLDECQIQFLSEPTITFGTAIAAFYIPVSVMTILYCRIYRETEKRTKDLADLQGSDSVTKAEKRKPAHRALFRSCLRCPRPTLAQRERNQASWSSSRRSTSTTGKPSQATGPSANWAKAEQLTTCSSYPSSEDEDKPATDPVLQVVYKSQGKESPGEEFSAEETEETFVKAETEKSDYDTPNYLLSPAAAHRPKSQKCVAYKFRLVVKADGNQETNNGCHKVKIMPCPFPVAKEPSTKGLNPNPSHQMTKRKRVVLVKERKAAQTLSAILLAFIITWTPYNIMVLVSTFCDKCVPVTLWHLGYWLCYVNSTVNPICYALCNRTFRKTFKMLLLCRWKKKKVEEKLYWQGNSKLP
Kind of assay: PDSP Secondary Binding target: CHRM5 - Compounds are tested at 10 uM concentration, plate are incubated at room temperature in the dark for 90 minutes. Reaction are stopped by vacuum filtration onto 0.3% polyethyleneimine soaked filter mats using Filtermate harvester. Scintillation cocktail is then melted onto microwave-dried filters on a hot plate and the radio activity is counted in Microbia counter.

The target of assay [16] is T5, Alpha-2A adrenergic receptor (Homo sapiens, UniProt P08913).
T5 sequence (P08913 whole entry): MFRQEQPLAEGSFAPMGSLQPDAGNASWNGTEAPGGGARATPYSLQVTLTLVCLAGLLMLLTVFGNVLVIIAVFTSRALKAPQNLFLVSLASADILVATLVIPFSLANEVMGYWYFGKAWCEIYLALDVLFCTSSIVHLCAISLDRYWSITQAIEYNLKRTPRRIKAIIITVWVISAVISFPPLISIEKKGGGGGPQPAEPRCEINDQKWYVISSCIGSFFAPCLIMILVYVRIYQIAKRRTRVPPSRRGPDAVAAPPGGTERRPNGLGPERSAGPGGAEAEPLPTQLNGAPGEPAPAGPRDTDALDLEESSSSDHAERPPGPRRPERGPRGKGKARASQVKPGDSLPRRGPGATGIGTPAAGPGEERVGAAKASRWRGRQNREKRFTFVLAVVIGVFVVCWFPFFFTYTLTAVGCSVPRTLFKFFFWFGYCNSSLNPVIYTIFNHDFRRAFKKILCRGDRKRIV
Kind of assay: PDSP Secondary Binding target: ADRA2A - Compounds are tested at 10 uM concentration, plate are incubated at room temperature in the dark for 90 minutes. Reaction are stopped by vacuum filtration onto 0.3% polyethyleneimine soaked filter mats using Filtermate harvester. Scintillation cocktail is then melted onto microwave-dried filters on a hot plate and the radio activity is counted in Microbia counter.

Chain of Delta-type opioid receptor (P41143 whole entry): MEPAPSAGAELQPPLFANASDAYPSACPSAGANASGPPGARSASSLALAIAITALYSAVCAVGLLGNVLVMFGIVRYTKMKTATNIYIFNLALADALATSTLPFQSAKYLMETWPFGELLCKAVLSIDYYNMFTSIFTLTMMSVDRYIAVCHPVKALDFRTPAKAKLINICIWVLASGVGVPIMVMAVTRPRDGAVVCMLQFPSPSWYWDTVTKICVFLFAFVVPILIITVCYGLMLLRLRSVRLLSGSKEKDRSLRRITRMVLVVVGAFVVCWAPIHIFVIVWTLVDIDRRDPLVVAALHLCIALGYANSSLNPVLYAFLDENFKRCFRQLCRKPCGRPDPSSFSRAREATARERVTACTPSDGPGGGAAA
Chain of Mu-type opioid receptor (P35372 whole entry): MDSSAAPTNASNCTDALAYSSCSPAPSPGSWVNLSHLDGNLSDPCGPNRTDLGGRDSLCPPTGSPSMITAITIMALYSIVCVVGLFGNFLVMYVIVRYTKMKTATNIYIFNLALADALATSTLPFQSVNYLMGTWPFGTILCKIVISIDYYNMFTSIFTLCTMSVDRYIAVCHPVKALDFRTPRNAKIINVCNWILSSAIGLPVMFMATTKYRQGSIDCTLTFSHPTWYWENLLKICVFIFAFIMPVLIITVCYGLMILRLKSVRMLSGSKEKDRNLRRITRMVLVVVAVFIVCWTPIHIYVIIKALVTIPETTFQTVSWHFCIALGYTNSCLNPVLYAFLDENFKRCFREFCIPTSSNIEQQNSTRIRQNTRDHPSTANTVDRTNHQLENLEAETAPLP
Chain of Sodium-dependent dopamine transporter (Q01959 whole entry): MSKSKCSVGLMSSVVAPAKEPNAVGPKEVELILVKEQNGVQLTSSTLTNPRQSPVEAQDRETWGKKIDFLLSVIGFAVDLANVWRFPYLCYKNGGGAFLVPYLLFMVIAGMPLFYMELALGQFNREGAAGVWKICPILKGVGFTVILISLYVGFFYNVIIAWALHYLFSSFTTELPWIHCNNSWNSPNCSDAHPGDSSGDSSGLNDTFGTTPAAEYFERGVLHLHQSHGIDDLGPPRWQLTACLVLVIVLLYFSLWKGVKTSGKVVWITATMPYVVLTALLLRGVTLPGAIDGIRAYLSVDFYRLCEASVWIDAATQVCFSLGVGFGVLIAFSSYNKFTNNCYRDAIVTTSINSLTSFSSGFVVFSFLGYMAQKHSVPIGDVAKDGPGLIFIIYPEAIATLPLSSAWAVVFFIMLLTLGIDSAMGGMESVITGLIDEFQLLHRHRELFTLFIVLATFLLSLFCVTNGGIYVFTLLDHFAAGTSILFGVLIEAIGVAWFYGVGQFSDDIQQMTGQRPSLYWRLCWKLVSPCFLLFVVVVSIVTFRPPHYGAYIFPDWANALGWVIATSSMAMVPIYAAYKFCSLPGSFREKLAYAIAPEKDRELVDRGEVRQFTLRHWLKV
Chain of Histamine H3 receptor (Q9Y5N1 whole entry): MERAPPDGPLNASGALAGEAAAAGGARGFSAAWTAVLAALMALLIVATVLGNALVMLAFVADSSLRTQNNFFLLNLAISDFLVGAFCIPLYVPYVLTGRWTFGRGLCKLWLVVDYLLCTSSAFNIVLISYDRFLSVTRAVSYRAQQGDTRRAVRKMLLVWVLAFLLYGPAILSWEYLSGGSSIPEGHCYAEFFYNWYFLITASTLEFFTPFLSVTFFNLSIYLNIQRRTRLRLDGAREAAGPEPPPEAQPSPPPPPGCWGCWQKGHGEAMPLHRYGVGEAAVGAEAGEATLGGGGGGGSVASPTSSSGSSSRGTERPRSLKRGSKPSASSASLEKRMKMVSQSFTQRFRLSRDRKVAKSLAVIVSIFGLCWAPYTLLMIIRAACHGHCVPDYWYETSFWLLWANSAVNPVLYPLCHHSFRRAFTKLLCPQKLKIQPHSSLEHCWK
Chain of Histamine H4 receptor (Q9H3N8 whole entry): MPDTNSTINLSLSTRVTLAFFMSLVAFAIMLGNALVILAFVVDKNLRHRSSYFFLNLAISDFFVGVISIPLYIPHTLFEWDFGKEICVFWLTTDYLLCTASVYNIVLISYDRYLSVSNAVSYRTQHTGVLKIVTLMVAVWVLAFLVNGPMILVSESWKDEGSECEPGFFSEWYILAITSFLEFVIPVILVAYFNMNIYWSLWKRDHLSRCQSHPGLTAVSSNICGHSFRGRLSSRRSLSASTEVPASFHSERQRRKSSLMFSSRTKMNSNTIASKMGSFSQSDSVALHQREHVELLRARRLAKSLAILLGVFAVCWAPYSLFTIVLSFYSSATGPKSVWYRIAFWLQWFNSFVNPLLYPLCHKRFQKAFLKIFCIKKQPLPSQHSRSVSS
Chain of 5-hydroxytryptamine receptor 2A (P28223 whole entry): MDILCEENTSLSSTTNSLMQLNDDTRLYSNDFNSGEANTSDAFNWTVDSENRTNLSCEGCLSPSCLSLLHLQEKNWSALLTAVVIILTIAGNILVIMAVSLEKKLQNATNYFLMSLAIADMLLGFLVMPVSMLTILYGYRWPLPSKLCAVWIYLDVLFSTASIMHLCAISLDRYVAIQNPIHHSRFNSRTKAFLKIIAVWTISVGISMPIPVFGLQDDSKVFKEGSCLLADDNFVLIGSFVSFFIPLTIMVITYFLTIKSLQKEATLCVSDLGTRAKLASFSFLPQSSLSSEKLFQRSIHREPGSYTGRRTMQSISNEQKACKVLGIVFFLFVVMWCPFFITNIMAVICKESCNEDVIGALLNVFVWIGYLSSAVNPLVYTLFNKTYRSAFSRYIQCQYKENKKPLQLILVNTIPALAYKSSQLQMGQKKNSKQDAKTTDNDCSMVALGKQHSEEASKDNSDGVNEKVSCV
Chain of Kappa-type opioid receptor (P41145 whole entry): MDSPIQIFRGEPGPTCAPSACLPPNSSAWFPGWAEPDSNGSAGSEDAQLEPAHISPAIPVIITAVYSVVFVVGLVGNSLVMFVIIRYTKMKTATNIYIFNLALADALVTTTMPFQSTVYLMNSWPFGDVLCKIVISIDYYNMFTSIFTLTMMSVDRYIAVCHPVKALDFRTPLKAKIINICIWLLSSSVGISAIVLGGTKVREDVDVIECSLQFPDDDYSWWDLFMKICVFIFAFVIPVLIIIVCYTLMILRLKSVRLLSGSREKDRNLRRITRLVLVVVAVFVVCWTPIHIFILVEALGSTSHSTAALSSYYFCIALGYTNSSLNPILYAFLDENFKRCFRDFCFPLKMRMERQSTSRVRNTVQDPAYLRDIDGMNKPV
Chain of Histamine H1 receptor (P35367 whole entry): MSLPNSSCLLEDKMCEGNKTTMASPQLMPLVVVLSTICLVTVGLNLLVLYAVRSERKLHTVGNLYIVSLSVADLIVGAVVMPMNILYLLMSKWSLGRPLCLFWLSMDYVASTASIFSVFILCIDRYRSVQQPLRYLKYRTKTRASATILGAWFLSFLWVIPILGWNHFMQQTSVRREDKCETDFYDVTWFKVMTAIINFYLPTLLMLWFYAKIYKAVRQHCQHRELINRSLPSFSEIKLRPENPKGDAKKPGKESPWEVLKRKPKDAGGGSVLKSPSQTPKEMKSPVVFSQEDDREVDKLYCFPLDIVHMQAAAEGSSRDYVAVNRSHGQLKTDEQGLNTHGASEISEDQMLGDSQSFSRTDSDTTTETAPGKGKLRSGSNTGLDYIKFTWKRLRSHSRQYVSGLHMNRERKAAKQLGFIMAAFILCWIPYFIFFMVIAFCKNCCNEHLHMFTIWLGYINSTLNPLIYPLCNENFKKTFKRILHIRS
Chain of Sigma intracellular receptor 2 (Q5BJF2 whole entry): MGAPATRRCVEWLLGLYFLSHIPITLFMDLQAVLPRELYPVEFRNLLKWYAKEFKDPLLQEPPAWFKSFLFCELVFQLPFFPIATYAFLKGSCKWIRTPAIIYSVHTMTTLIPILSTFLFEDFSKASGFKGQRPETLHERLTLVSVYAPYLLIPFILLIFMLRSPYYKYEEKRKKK
Chain of Sodium-dependent noradrenaline transporter (P23975 whole entry): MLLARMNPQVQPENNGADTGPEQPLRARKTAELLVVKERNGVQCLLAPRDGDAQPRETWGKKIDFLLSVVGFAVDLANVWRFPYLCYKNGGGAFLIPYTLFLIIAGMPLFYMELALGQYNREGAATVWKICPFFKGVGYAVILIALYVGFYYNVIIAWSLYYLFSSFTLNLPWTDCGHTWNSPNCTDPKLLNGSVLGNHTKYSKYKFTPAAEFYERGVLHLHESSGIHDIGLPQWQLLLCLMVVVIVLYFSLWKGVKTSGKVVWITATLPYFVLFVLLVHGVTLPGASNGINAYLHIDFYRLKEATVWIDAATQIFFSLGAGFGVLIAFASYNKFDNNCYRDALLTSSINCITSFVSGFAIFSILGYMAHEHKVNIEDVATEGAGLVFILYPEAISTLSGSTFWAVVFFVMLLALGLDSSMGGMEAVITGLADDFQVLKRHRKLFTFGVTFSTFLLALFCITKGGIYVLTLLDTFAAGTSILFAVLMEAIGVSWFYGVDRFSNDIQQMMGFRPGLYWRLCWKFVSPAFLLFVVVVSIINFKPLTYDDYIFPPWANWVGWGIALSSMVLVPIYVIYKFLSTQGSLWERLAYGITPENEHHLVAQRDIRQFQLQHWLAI
Chain of Sigma non-opioid intracellular receptor 1 (Q99720 whole entry): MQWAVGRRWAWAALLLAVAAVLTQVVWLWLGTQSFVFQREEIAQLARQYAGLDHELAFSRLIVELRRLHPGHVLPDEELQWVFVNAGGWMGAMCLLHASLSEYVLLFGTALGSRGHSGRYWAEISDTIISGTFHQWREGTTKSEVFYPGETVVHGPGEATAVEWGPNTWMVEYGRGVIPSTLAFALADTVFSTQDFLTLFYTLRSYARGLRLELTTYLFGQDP

For `N#Cc1c(N)nc(SCc2csc(-c3ccc(Cl)cc3)n2)c(C#N)c1-c1ccc(OCCO)cc1` [CAPADENOSON], the Ki was 3190 nM in assay [1] and greater than 10000 nM in assay [2].

Turning to `c1cc(CN2CCCNCCNCCCNCC2)ccc1CN1CCCNCCNCCCNCC1` [PLERIXAFOR], the Ki in assay [1] was greater than 10000 nM; in assay [3] it was 1780 nM; in [4], 804 nM; in [5] it was 2.74 nM; in assay [6], 1010 nM.

`C=CCN1C[C@H](C)N([C@H](c2ccc(C(=O)N(CC)CC)cc2)c2cccc(O)c2)C[C@H]1C`: the Ki in assay [7] was found to be 23.3 nM; in [8] it was 14.7 nM; in assay [2] it was 3.85 nM; in assay [9], 108 nM.

`C[C@@H](N)Cc1c[nH]cn1`: in assay [10], the inhibitory constant (Ki) was 169 nM.

For the molecule `Cc1c(C2=CCN(C(=O)N(C)C(C)C)CC2)nnn1-c1cccnc1F`, the inhibition constant (Ki) in assay [11] is greater than 10000 nM; in assay [12] it was 1450 nM; in assay [13] it was 8120 nM; in assay [14] it was greater than 10000 nM; in assay [2], greater than 10000 nM.

Regarding `CN(C(=O)Cc1ccc(Cl)c(Cl)c1)C(CN1CCCC1)c1cccc(OCC(=O)O)c1` (stereo not drawn), the Ki stood at 5910 nM in [15], 323 nM in [8] and 411 nM in [2].

As for `N=C(N)SCCc1cnc[nH]1`, the values for the Ki in assay [5], in [10] and in assay [16] were 0.632 nM, 4.86 nM and 4040 nM, respectively.
